Measurements from patent US9732060B2, “Aminotriazine derivative and pharmaceutical composition comprising the same” (Shionogi & Co., Ltd., priority 2013, dated 2017).
pIC50: −log10 of the molar value. Read-outs that look alike come from different tables or passages of the source.

What was measured:
[1] = biological target: human P2X3 receptor (Homo sapiens (Human), UniProt P56373); experiment: Evaluation of human P2X3 receptor inhibitory activity in the presence of human serum albumin (HSA); assay type: cell-based; conditions: in the presence of 1% HSA (final concentration)
Sequence of human P2X3 receptor (P56373 whole entry): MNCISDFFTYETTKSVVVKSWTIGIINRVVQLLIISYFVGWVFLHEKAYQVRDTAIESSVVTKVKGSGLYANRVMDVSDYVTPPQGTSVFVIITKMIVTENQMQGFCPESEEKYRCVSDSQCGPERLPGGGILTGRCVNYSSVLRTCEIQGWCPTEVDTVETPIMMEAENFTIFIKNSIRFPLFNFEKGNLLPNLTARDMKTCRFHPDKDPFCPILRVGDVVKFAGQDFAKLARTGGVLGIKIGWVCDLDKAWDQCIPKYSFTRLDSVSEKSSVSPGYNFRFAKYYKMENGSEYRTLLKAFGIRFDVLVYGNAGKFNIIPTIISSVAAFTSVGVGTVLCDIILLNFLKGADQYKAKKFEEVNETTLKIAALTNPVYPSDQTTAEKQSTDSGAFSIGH
Experimental: Stably expressing cell line (C6BU-1 cell transfected with human P2X3 receptor gene (GenBank accession number Y07683; was used. The cells were seeded in a 96-well microtiter plate at a concentration of 8000 cells/well and cultured in the medium (7.0% fetal bovine serum, 7.0% horse serum, 1% antibiotic and antifungal, and 2.0% glutamine in DMEM) for one day at 37° C. under 5% carbon dioxide atmosphere. The medium was replaced with 4 μM Fluo-3-AM solution (20 mM HEPES, 137 mM NaCl, 5.37 mM KCl, 0.9 mM MgCl2, 1.26 mM CaCl2, 5.6 mM D-glucose, 2.5 mM probenecid, 0.5% BSA, and 0.04% Pluronic F-127, pH 7.5) and incubated at 37° C. under 5% dioxide carbon atmosphere for one hour. The plate was washed with washing buffer (20 mM HEPES, 137 mM NaCl, 5.27 mM KCl, 0.9 mM MgCl2, 1.26 mM CaCl2, 5.6 mM D-glucose, 2.5 mM probenecid, pH 7.5), and each well was added with 40 μL of this buffer. The plate was placed in High-Throughput Screening System FDSS 3000 (Hamamatsu Photonics K.K.). Measurement of fluorescence intensity by FDSS 3000 was started, and 40 μL of DMSO solutions containing 1% HSA (final concentrations) different concentrations of the test compound as prepared by dilution with dilution buffer (20 mM HEPES, 137 mM NaCl, 5.27 mM KCl, 0.9 mM MgCl2, 1.26 mM CaCl2, 5.6 mM D-glucose, 2.5 mM probenecid, 0.1% Pluronic F-127, pH 7.5) were dispensed to each well through the built-in automatic dispenser. Five minutes after, 50 nM ATP solution (50 μL) prepared by dilution with the dilution buffer was dispensed through the built-in automatic dispenser, and the measurement of fluorescence intensity was continued for 4 min. For each well, the specific maximum fluorescence intensity was calculated as the ratio of the maximum fluorescence intensity after addition of the ATP solution to the fluorescence intensity at the starting of the measurement. […] FDSS software (Hamamatsu Photonics K.K.) was used for calculation of the specific maximum fluorescence intensity. IC50 was calculated using Microsoft Excel (Microsoft Corporation) and XLfit (idbs Ltd.)

[2] = biological target: Rat P2X3 receptor (Rattus norvegicus (Rat), UniProt P49654); experiment: Evaluation of rat P2X3 receptor inhibitory activity in the presence of rat serum albumin (RSA); assay type: cell-based; conditions: read-out: ratP2X3 + RSA IC50
Sequence of Rat P2X3 receptor (P49654 whole entry): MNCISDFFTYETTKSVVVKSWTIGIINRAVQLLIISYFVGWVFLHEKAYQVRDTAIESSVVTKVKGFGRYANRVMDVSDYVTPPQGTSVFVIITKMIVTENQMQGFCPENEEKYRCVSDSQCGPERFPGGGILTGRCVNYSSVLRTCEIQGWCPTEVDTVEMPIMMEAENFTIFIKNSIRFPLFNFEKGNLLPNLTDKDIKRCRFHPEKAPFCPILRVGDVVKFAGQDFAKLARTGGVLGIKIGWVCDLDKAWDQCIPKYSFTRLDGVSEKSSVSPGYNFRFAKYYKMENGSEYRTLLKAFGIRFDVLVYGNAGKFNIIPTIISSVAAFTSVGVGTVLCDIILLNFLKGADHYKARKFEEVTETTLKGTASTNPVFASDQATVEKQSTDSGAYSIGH
Experimental: Rat P2X3 receptor gene (GenBank accession number NM_031075) was expressed in C6BU-1 cell. The C6BU-1 cells were seeded in a 96-well micro titer plate at a concentration of 2500 cells/well and cultured in the medium (7.0% fetal bovine serum, 7.0% horse serum, and 1% antibiotic and antifungal in DMEM) for one day at 37° C. under 5% carbon dioxide atmosphere. The plasmid was transfected into the cells using transfection reagent FuGENE6 (Promega). The transfected cells were cultured in the medium for one day at 37° C. under 5% carbon dioxide atmosphere. The medium was replaced with 4 μM Fluo-4-AM solution (pH 7.5) containing 20 mM HEPES, 137 mM NaCl, 5.27 mM KCl, 0.9 mM MgCl2, 1.26 mM CaCl2, 5.6 mM D-glucose, 2.5 mM probenecid, 10% RSA, and 0.08% Pluronic F-127, and incubated at 37° C. under 5% dioxide carbon atmosphere for one hour. The plate was washed with washing buffer (20 mM HEPES, 137 mM NaCl, 5.27 mM KCl, 0.9 mM MgCl2, 1.26 mM CaCl2, 5.6 mM D-glucose, 2.5 mM probenecid, pH 7.5), and each well was added with 40 μL of this buffer. The plate was placed in High-Throughput Screening System FDSS 3000 (Hamamatsu Photonics K.K.). Measurement of fluorescence intensity by FDSS 3000 was started, and 40 μL of DMSO solutions containing 1% RSA (final concentrations) and different concentrations of the test compound as prepared by dilution with dilution buffer (20 mM HEPES, 137 mM NaCl, 5.27 mM KCl, 0.9 mM MgCl2, 1.26 mM CaCl2, 5.6 mM D-glucose, 2.5 mM probenecid, 0.1% Pluronic F-127, pH 7.5) were dispensed to each well through the built-in automatic dispenser. Five minutes after, 50 nM ATP solution (50 μL) prepared by dilution with the dilution buffer was dispensed through the built-in automatic dispenser, and the measurement of fluorescence intensity was continued for 4 min. For each well, the specific maximum fluorescence intensity was calculated as the ratio of the maximum fluorescence intensity after addition of the ATP solution to the fluorescence intensity at the starting of the measurement. […] FDSS software (Hamamatsu Photonics K.K.) was used for calculation of the specific maximum fluorescence intensity. IC50 was calculated using Microsoft Excel (Microsoft Corporation) and XLfit (idbs Ltd.).

[3] = Solubility test (1% DMSO, artificial intestinal juice pH 6.8); assay type: physicochemical; conditions: artificial intestinal juice pH 6.8 with 1% DMSO, 25 °C, fassgf or other biorelevant, kinetic from dmso stock, artificial intestinal juice pH 6.8, 25 degrees Celsius, read-out: Solubulity
[4] = Pharmacokinetic test (BA, CLtot); assay type: in vivo; conditions: rat, plasma, SD rats
Experimental: • (1) Animals: SD rats were used • (2) Breeding conditions: SD rats were allowed to freely take solid food and sterilized tap water. • (3) Dose and grouping: orally or intravenously administered at a predetermined dose; grouping was as follows (Dose depends on the compound)
Oral administration: 1 mg/kg (n=2)
The total body clearance (CLtot) was calculated by dividing the dose by the AUC of the intravenous administration group.

SMILES: Cc1ccc(Cn2c(=O)n(C[C@H](C)C(=O)O)c(=O)[nH]/c2=N\c2ccc(Oc3ccc(F)cn3)cc2)cc1 [Compound I-040]
- pIC50 [1]: 7.74
- pIC50 [2]: 8.05
- solubility at 18 h [3]: > 50 µM
- clearance ([4]; intravenous administration 0.5 mg/kg): 28.6 mL/min/kg
- AUC ([4]; intravenous administration 0.5 mg/kg, read-out: AUC (iv)): 291 ng·h/mL
- AUC ([4]; oral administration 1 mg/kg, read-out: AUC (po)): 410 ng·h/mL
